Data: patent EP0176999A2, “Amino acid derivatives, process for their preparation and pharmaceutical compositions” (BOEHRINGER INGELHEIM KG, priority 1984, dated 1986)
pIC50: −log10 of the molar value.

Tests used:
Angiotensin I = experiment: Lowering of blood pressure raised by i.v. angiotensin I in the anaesthetised rat; format: in vivo, Ratte; conditions: anaesthetised rat, 0,3 mg/kg i.v.; blood pressure raised beforehand by 0,1 mg/kg Angiotensin I i.v.
Experimental: So erzeugt N-[N^α-(3-Phenyl-2-S-mercaptopropanoyl)-S-lysyl]-thiazolidin-4-S-carbonsäure an der narkotisierten Ratte in einer Dosierung von 0,3 mg/kg i.v. eine lang anhaltende Blutdrucksenkung von 60 %, wenn man vorher durch eine i.v.-Gabe von 0,1 mg/kg Angiotensin I den Blutdruck steigert; beim N-[N^a-(3-Phenyl-2-S-mercaptopropanoyl)S-lysyl]-S-prolin liegt der Wert bei gleichem Test bei 57 %.

[1] = biological target: T1, Angiotensin I Converting Enzym (Oryctolagus cuniculus, UniProt P12822); experiment: Inhibition of angiotensin I converting enzyme in vitro; format: biochemical; conditions: inhibitor concentration at which the enzyme is 50 % inhibited (Cheung, Cushman method), read-out: Hemmaktivität IC50
T1 sequence (P12822 34-1310): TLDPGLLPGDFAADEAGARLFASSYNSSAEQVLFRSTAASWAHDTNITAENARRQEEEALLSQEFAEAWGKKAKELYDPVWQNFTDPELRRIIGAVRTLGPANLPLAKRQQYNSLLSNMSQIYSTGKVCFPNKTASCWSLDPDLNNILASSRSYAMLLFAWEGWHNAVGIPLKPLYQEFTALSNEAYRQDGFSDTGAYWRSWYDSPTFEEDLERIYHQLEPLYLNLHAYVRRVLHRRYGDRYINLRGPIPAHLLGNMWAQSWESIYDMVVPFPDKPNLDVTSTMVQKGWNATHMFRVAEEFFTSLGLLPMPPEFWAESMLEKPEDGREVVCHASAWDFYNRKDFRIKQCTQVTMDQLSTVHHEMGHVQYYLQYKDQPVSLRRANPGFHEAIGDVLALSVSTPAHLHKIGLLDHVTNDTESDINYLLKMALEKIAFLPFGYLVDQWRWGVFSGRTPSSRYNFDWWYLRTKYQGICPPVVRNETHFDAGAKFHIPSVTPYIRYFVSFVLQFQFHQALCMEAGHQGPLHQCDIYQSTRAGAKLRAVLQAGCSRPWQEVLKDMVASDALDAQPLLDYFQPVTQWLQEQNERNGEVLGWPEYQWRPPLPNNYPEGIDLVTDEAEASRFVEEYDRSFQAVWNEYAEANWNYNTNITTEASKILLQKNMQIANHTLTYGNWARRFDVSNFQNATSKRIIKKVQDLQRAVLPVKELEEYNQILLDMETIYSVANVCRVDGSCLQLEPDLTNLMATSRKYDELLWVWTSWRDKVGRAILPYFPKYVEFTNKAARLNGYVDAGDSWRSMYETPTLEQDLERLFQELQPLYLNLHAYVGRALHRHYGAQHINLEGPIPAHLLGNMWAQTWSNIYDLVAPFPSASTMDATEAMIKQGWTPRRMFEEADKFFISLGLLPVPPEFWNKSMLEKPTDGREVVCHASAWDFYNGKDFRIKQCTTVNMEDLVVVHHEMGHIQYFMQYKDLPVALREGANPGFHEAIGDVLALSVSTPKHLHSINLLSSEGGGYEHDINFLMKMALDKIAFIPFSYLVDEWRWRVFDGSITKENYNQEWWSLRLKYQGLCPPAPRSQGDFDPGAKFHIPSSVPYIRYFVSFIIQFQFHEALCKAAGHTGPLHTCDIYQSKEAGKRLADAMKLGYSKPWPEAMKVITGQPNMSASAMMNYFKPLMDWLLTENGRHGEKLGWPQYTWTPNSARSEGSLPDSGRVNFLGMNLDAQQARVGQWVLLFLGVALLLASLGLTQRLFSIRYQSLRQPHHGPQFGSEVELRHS
Text: N-[N^α-(3-Phenyl-2-S-mercaptopropanoyl)-S-lysyl]-thiazolidin-4-S-carbonsäure zeigt am Angiotensin I Converting Enzym in vitro eine Hemmaktivität IC50= 4,6 . 10^-9 [M]; die IC50 beträgt beim N-[N^αa-(3-Phenpl-2-S-mercaptopropanoyl)-S-lysyl]-S-prolin 2,7 . 10-^8 [M].
Als IC50 wird hierbei diejenige Hemmstoffkonzentration bezeichnet, bei der das Angiotensin I Converting Enzym zu 50 % gehemmt wird (s. H. S. Cheung, D. W. Cushman, Biochem. Biophys. Acta 293, 451 (1973)).

| pIC50 [1] | Compound | lang anhaltende Blutdrucksenkung (Angiotensin I) |
| --- | --- | --- |
|  | NCCCC[C@H](NC(=O)[C@@H](S)Cc1ccccc1)C(=O)N1CCC[C@H]1C(=O)O [Beispiel 11] | 57% |
| 8.34 | N-[N^α-(3-Phenyl-2-S-mercaptopropanoyl)-S-lysyl]-thiazolidin-4-S-carbonsäure [Beispiel 3] | 60% |
